The values that follow come from patent US20230102192A1, “THERAPIES FOR THE TREATMENT OF DISEASES AND DISORDERS ASSOCIATED WITH ABNORMAL EXPRESSION OF A NEURAL-ASSOCIATED GENE” (The Regents of the University of California, priority 2020, published 2023).

The subject of this assay is MECP2-KO cortical organoids. The assay can be described thus: Synapsin1+ puncta quantitation in cortical organoids. It counts as cell-based, human. To be noted: 1 μM for one month, vs untreated. How it is done: Immunofluorescence of cells and cortical organoids. Immunofluorescence was performed as described in Chailangkam et al. Cells fixed in 4% PFA were PBS-washed and permeabilized/blocked (0.1% Triton X-100, 2% BSA). Cortical organoids fixed in 4% PFA were transferred to 30% sucrose, sunken, embedded in O.C.T. (Sakura, Tokyo, Japan), and cryostat-sectioned. Air-dried slides with organoid sections were permeabilized/blocked (0.1% Triton X-100, 3% FBS, PBS). […] Slides or coverslips were mounted with ProLong Gold anti-fade mountant (Life Technologies) and analyzed with a Z1 Axio Observer Apotome fluorescence microscope (Zeiss, Oberkochen, Germany).
Nefiracetam and PHA 543613 rescue network activity in MECP2-KO cortical organoids. The therapeutic efficacy of Nefiracetam and PHA 543613 was evaluated with cortical organoids, a complex, three-dimensional human neurodevelopmental model that closely recapitulates aspects of human fetal neurodevelopment. […]

`Cc1cccc(C)c1NC(=O)CN1CCCC1=O` [Nefiracetam, nefiracetam]: the “synaptic puncta (Synapsin1+)” value is on record as “increase”.
